Data from paper PMC8462848, “Quinazolin-4(3H)-one based potential multiple tyrosine kinase inhibitors with excellent cytotoxicity” (Journal of Enzyme Inhibition and Medicinal Chemistry, 2021).

Tests used:
EGFR = target: T1, EGFR (Homo sapiens, UniProt P00533); assay: EGFR kinase assay kit, Kinase-Glo MAX luminescence; format: biochemical; details: for inhibition at 0.01 µM / inhibition at 0.1 µM / inhibition at 1 µM / inhibition at 10 µM: one experimental data; for IC50: mean ± SD of triplicate
T1 construct: purchased #40321
T1 sequence (P00533 25-1210): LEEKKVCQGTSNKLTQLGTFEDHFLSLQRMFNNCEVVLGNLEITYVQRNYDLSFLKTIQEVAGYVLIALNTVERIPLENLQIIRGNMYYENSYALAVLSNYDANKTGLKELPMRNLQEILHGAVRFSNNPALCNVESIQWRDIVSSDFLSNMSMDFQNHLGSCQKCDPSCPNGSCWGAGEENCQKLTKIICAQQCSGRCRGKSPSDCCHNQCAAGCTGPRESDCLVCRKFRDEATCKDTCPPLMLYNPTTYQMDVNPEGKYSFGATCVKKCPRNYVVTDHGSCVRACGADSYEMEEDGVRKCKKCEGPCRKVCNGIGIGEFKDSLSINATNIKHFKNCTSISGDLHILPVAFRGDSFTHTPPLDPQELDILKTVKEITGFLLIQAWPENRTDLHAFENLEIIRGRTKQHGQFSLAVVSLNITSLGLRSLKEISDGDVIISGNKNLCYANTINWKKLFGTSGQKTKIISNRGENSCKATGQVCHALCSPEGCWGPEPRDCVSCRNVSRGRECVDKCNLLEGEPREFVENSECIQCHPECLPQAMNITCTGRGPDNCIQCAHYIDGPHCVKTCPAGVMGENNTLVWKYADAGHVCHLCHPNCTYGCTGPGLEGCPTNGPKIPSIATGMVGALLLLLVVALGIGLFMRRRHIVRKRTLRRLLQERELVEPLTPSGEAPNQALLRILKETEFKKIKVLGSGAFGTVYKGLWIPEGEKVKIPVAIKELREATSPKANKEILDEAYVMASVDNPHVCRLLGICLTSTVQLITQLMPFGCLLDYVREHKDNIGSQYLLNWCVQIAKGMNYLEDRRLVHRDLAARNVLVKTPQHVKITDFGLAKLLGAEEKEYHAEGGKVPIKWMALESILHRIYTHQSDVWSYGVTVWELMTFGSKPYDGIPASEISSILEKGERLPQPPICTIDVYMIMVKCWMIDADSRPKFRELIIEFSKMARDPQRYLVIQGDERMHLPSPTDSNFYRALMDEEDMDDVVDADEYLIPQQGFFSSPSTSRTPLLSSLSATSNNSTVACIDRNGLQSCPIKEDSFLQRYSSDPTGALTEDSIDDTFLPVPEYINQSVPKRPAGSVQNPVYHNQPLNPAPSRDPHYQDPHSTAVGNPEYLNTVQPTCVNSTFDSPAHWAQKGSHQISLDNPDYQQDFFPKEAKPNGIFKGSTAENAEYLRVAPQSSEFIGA
Experimental: (§1) The HER2/EGFR/VEGFR2 assay kit is designed to measure HER2/EGFR/VEGFR-2 inhibitory activity for screening and profiling applications, using Kinase-Glo® MAX as a detection reagent. The HER2/EGFR/VEGFR2 assay kit comes in a convenient 96-well format, with enough purified recombinant HER2/EGFR/VEGFR2 enzyme, HER2/EGFR/VEGFR2 substrate, ATP and kinase buffer 1 for 100 enzyme reactions. […] […] The quinazolin-4(3H)-ones were diluted in 10% DMSO and 5 μl of the dilution was added to a 50 μl reaction so that the final concentration of DMSO was 1% in all of the reactions. All of the enzymatic reactions were conducted at 30 °C for 40 min. The 50 μl reaction mixture contained 40 mM Tris, pH 7.4, 10 mM MgCl2, 0.1 mg/mL BSA, 1 mM DTT, 10 mM ATP, kinase substrate and the enzyme HER2 / EGFR / VEGFR2. After the enzymatic reaction, 50 μl of Kinase-Glo® MAX luminescence kinase assay solution was added to each reaction and the plates were incubated for 5 min at room temperature. Luminescence signal was measured using a Bio Tek Synergy 2 microplate reader (For detail enzyme assay protocol and the results, please see supplementary data).

[1] = tested on: A2780 (human ovary adenocarcinoma) cells; assay: MTT cytotoxicity assay, A2780; format: cell-based; details: Homo sapiens, A2780, mean ± SD of triplicate
Experimental: (§2) The cytotoxicity of the synthesised quinazolin-4(3H)-ones was evaluated by MTT assay, as previously described. Two cancer cell lines, MCF7 (human breast adenocarcinoma) and A2780 (human ovary adenocarcinoma), were used in this study, which were obtained from the ATCC (Rockville, MD, USA). […] Additionally, compounds were prepared at the same medium to obtain serial dilutions (50, 25, […] and 0.1 µM). […] The media were aspirated, and the formazan crystals were solubilised by adding 150 µL DMSO. Absorbance was read on a multi-plate reader (BioRad) at […]. […] The data were obtained from triplicates and analysed using statistical software.

[2] = tested on: MCF7 (human breast adenocarcinoma) cells; assay: MTT cytotoxicity assay, MCF7; format: cell-based; details: Homo sapiens, MCF7, mean ± SD of triplicate
Experimental: as §2

CDK2/CyclinA2 [3] = target: T2, CDK2/CyclinA2 (Homo sapiens, UniProt P24941); assay: CDK2 Assay Kit, Kinase-Glo MAX luminescence; format: biochemical; details: one experimental data
T2 construct: purchased #79599
Experimental: The CDK2 Assay Kit is designed to measure CDK2/CyclinA2 activity for screening and profiling applications, using Kinase-Glo® MAX as a detection reagent. The CDK2 Assay Kit comes in a convenient 96-well format, with enough purified recombinant CDK2/CyclinA2 enzyme, CDK substrate peptide, ATP and kinase assay buffer for 100 enzyme reactions. […] […] The compounds were diluted in 10% DMSO and 5 μl of the dilution was added to a 50 μl reaction so that the final concentration of DMSO was 1% in all of the reactions. All of the enzymatic reactions were conducted at 30 °C for 40 min. The 50 μl reaction mixture contained 40 mM Tris, pH 7.4, 10 mM MgCl2, 0.1 mg/mL BSA, 1 mM DTT, 10 mM ATP, Kinase substrate and the enzyme (CDK2/CyclinA2). After the enzymatic reaction, 50 μl of Kinase-Glo® MAX Luminescence kinase assay solution was added to each reaction and the plates were incubated for 5 min at room temperature. Luminescence signal was measured using a Bio Tek Synergy 2 microplate reader.
Figure S1. Calculation of the IC20 Values of Protein Kinase Enzyme CDK2 for 2f
* All the kinase IC20 (µM) were calculated according to the above equations.
(1 picture or pasted object on this page, not shown here)

CDK2/CyclinA2 [4] = target: T2, CDK2/CyclinA2; assay: CDK2 Assay Kit, Kinase-Glo MAX luminescence; format: biochemical; details: mean ± SD of triplicate
HER2 = target: T3, HER2 (Homo sapiens, UniProt P04626); assay: HER2 kinase assay kit, Kinase-Glo MAX luminescence; format: biochemical; details: for inhibition at 0.01 µM / inhibition at 0.1 µM / inhibition at 1 µM / inhibition at 10 µM: one experimental data; for IC50: mean ± SD of triplicate
T3 construct: purchased #40721
T3 sequence (P04626 23-1255): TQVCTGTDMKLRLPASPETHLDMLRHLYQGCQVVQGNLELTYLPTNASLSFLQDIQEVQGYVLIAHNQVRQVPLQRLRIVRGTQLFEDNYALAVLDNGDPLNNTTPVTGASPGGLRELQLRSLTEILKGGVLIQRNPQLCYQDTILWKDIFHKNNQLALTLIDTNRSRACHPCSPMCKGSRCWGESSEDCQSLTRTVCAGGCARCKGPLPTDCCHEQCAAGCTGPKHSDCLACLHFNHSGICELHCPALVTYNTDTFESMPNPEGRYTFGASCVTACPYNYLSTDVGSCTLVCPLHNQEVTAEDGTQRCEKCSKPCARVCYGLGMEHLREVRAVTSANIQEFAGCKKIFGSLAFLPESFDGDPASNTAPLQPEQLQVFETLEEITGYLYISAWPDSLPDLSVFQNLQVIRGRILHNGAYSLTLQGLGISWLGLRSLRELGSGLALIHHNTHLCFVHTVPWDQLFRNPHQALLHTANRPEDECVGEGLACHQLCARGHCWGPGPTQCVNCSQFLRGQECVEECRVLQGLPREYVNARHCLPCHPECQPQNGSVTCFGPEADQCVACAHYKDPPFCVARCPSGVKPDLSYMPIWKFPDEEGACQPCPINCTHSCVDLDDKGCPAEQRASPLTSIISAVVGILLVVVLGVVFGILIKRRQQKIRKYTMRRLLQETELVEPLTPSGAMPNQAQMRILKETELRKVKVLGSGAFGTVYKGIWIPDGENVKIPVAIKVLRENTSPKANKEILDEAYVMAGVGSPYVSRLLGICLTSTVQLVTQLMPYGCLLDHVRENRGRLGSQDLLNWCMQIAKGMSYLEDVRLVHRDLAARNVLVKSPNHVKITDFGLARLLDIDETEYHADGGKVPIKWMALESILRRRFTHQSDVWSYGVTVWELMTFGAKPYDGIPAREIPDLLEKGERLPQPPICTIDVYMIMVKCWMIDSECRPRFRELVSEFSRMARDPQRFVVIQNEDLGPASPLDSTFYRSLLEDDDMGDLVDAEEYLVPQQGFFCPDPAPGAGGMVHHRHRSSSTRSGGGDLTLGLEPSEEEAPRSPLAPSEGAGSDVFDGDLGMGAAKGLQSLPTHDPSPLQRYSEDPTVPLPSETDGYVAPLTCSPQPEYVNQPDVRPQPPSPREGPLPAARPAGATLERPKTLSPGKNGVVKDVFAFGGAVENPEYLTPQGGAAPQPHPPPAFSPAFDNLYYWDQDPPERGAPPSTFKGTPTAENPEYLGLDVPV
Experimental: as §1

VEGFR2 = target: T4, VEGFR2 (Homo sapiens, UniProt P35968); assay: VEGFR2 kinase assay kit, Kinase-Glo MAX luminescence; format: biochemical; details: for inhibition at 0.01 µM / inhibition at 0.1 µM / inhibition at 1 µM / inhibition at 10 µM: one experimental data, read-out: % Inhibition VEGFR-2; for IC50: mean ± SD of triplicate
T4 construct: purchased #40325
T4 sequence (P35968 20-1356): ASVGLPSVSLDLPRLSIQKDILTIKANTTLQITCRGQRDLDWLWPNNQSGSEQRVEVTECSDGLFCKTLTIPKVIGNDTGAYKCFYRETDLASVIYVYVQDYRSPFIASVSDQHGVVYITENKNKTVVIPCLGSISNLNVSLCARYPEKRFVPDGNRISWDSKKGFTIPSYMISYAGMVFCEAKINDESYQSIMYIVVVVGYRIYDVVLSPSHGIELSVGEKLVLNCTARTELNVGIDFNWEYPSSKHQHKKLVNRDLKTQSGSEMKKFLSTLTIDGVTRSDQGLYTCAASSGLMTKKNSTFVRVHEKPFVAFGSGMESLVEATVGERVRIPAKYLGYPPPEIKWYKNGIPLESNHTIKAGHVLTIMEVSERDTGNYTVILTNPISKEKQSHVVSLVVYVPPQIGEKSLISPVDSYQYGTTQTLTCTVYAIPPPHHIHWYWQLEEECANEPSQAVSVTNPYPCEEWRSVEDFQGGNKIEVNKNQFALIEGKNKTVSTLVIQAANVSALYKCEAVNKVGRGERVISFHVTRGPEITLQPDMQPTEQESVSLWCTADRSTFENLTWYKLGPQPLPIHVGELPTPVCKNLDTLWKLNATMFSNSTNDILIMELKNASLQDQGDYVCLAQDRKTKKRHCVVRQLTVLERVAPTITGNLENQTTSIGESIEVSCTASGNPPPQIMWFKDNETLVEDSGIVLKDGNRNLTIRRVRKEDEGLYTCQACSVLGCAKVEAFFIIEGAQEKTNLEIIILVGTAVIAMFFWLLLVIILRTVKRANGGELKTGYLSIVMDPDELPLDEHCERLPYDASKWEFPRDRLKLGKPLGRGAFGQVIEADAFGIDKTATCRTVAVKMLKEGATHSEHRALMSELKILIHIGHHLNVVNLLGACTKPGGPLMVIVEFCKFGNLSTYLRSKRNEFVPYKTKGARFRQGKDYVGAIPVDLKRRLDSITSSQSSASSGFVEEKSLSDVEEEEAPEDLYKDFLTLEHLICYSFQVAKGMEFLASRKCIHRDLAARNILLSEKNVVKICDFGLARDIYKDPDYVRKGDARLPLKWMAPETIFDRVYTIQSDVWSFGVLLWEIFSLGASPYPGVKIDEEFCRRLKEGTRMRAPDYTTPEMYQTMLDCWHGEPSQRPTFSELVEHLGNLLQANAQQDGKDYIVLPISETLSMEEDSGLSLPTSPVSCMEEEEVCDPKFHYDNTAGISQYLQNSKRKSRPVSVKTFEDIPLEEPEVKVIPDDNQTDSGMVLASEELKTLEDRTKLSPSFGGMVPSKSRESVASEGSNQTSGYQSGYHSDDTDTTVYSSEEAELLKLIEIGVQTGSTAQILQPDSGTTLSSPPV
Experimental: as §1

inhibition at 0.01 µM (EGFR) [%] | inhibition at 0.1 µM (EGFR) [%] | inhibition at 1 µM (EGFR) [%] | inhibition at 10 µM (EGFR) [%] | IC50 (EGFR) [nM] | inhibition at 0.01 µM (CDK2/CyclinA2 [3]) [%] | inhibition at 0.1 µM (CDK2/CyclinA2 [3]) [%] | inhibition at 1 µM (CDK2/CyclinA2 [3]) [%] | inhibition at 10 µM (CDK2/CyclinA2 [3]) [%] | IC50 (CDK2/CyclinA2 [4]) [nM] | melting point [°C] | inhibition at 0.01 µM (HER2) [%] | inhibition at 0.1 µM (HER2) [%] | inhibition at 1 µM (HER2) [%] | inhibition at 10 µM (HER2) [%] | IC50 (HER2) [nM] | inhibition at 0.01 µM (VEGFR2) [%] | inhibition at 0.1 µM (VEGFR2) [%] | Compound | IC50 [1] [nM] | IC50 [2] [nM] | other results
11.8 | 43.7 | 39.1 | 82.3 | 97 ± 19 | 4.28 | 40.5 | 37.8 | 83.7 | 173 ± 12 | 104 to 105 | 20.4 | 24.4 | 83.7 | 94.8 | 128 ± 24 | 8.13 | 31.8 | CCOC(=O)CSc1nc2cc(OC)c(OC)cc2c(=O)n1Cc1ccccc1 [2i, Ethyl 2-((3-benzyl-6,7-dimethoxy-4-oxo-3,4-dihydroquinazolin-2-yl)thio)acetate] | 1160 ± 100 | 2700 ± 160 | inhibition at 1 µM (VEGFR2): 20.3%; inhibition at 10 µM (VEGFR2): 77.8%; IC50 (VEGFR2): 2846 ± 14 nM
22.2 | 49.9 | 84.3 | 90.2 | 813 ± 22 | 4.28 | 40.5 | 37.8 | 83.7 | 862 ± 16 | 132 to 134 | 12.3 | 47 | 82.4 | 93.5 | 343 ± 15 | 0.324 | 20.3 | CCOC(=O)CSc1nc2c(C)cc(Cl)cc2c(=O)n1Cc1ccccc1 [2j] | 2680 ± 90 | 3790 ± 960 | inhibition at 1 µM (VEGFR2): 38.9%; inhibition at 10 µM (VEGFR2): 33.9%; IC50 (VEGFR2): 247 ± 15 nM
3.31 | 31.3 | 31.4 | 84.8 | 440 ± 15 | 2.23 | 34.7 | 33.3 | 81 | 420 ± 13 | 151 to 152 | 17.3 | 47.8 | 82.2 | 90.2 | 132 ± 14 | 3.71 | 29.8 | NNC(=O)CSc1nc2ccc(Cl)cc2c(=O)n1Cc1ccccc1 [3f, 2-((3-Benzyl-6-chloro-4-oxo-3,4-dihydroquinazolin-2-yl)thio)acetohydrazide] | 1540 ± 600 | 340 ± 110 | inhibition at 1 µM (VEGFR2): 23.4%; inhibition at 10 µM (VEGFR2): 79.3%; IC50 (VEGFR2): 651 ± 14 nM
8.4 | 38 | 29.2 | 87.2 | 128 ± 16 | 3.74 | 19.9 | 70.2 | 82.1 | 257 ± 16 | 185 to 186 | 2.73 | 44.4 | 77.3 | 89.8 | 248 ± 23 | 3.17 | 19.5 | NNC(=O)CSc1nc2c(F)cc(F)cc2c(=O)n1Cc1ccccc1 [3h, 2-((3-Benzyl-6,8-difluoro-4-oxo-3,4-dihydroquinazolin-2-yl)thio)acetohydrazide] | 630 ± 160 | 840 ± 50 | inhibition at 1 µM (VEGFR2): 33.4%; inhibition at 10 µM (VEGFR2): 33.1%; IC50 (VEGFR2): 1370 ± 26 nM
18.7 | 48.8 | 81 | 89.9 | 371 ± 14 | 8.13 | 42.8 | 38.4 | 84 | 473 ± 33 | 216 to 220 | 2.33 | 39.5 | 72 | 92.2 | 222 ± 12 | 1.98 | 22.3 | Cc1cc(Cl)cc2c(=O)n(Cc3ccccc3)c(SCC(=O)NN)nc12 [3j] | 220 ± 30 | 200 ± 20 | inhibition at 1 µM (VEGFR2): 41.1%; inhibition at 10 µM (VEGFR2): 74.4%; IC50 (VEGFR2): 3085 ± 16 nM
